Experimental data: patent US12527774B2, “Estrogen-related receptor alpha modulators” (LEAD PHARMA HOLDING B.V., priority 2019, dated 2026)

Legend:
[1] = biological target: ERRα ligand binding domain (ERRα-LBD) (Homo sapiens (Human), UniProt P11474); assay: ERRα AlphaScreen Assay; format: biochemical; conditions: disruption of binding of ERRα-LBD protein to biotin-PGC1α-3 co-activator peptide; for IC50: read-out: mean pIC50 (converted)
Summary of the method: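 Disruption of co-activator binding read by AlphaScreen: compounds in triplicate, 1% DMSO, Tris pH 7.5 buffer, room temperature. Bacterially expressed 6His-SUMO-ERRα-LBD at 0.81 nM with beads for 1 h, then 15 nM biotinylated PGC1α peptide for 2 h. IC50 from four-parameter fits, averaged as pIC50.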

full length ERRα = full length ERRα (Homo sapiens (Human), UniProt P11474); assay: Full Length ERRα Reporter Gene Assay; format: cell-based; conditions: SK-BR-3 cells, ERRα-RE luciferase reporter, overnight incubation; read-out: mean pIC50 (converted)
Text: Full Length ERRα Reporter Gene Assay
A method was established to quantitatively screen the potency of compounds with inverse agonistic activity on the nuclear receptor ERRα of the human species. The assay allows intra-cellular screening of ERRα inverse agonists in SK-BR-3 cells using an over-expression construct coding full length ERRα and a reporter construct containing an ERRα Response Element (RE) and a luciferase gene for read out. The activity is expressed in log IC50 values and can be used to determine SAR of compound families or to de-select compounds.
In this assay, reporter cells are obtained by transient co-transfection of two constructs in SK-BR-3 cells using standard transfection techniques. The first construct contains a response element of the nuclear receptor ERRα (Plasmid pLP2175, Reporter construct ERRα-RE/luc2P, cloned variant of ERRα_v2_synthRE, Switchgear Genomics, Catalog Number S900089). This sequence drives the transcription of the luciferase reporter gene in response to binding of an ERRα protein encoded by the second construct (Plasmid pLP2124: full length ERRα expression construct using pcDNA3.1/Hygro(+) as background, Invitrogen Catalog Number V87020).
The day after transfection, cells were plated into 96 well plates, test compound was added and the plates were incubated overnight. Subsequently, the firefly luciferase activity was quantified using luciferase detection reagent and luminescence readout.
Detailed Assay Description
Transfection is performed on pre-seeded SK-BR-3 cells in a T175 flask. One transfected T175 flask is sufficient for seeding 3 to 4 MW96 plates the next day, depending on the confluency of the transfected cells.
Two different media are used in this protocol for cell treatment: 1) Culture medium, i.e. McCoy's 5a with phenol red (BioWhittaker Supplier Number 12-688F), 10% FBS and 1× Penstrep.; and, 2) Assay medium, i.e. McCoy's 5a Medium phenol red free (HyClone Product Code SH30270.01) with 2% Charcoal Stripped FBS and 1× Penstrep. Compound dilutions are prepared in assay medium.
Cells are seeded at least 2 days in advance to allow the cells to adhere well to flask before transfection. Cells should be 50-80% confluent at the day of transfection.
SKBR3 cells were transfected with the transcriptional reporter construct pLP2175 and the ERRα expression construct pLP2124 (as described above).
68 μL of Lipofectamine LTX transfection reagent (Invitrogen Catalog Number 15338-100) was added dropwise to 8.9 ml Opti-MEM I Reduced Serum Medium (Gibco Catalog Number 51985-026) and incubated at room temperature for 5 to 20 minutes. 8.9 ml of this reagent mixture was added to 22 μg pLP2175+22 μg pLP2124 (ratio 1:1 and total volume 10 ml), and incubated at room temperature for 25 minutes.
10 minutes before adding the transfection mix to SKBR3 cells in a T175 flask, the culture medium was refreshed with 20 mL culture medium. Subsequently, the 10 mL DNA-Opti-MEM-Lipofectamine mixture was gently added to the cells, followed by overnight (16-24 hours) incubation at 37° C. and 5% CO2.
To harvest SKBR3 cells from a T175 flask, first the medium was removed. Subsequently, cells were washed with Phosphate Buffered Saline (PBS) (Lonza), after which the PBS was removed. To dissociate the cells, 2 ml of TrypLE Express (Invitrogen) was added to the flask, followed by incubation at 37° C. for 5 minutes. The flask was tapped until cells were detached from the bottom. Cells were collected in 8 mL of culture medium (McCoy's 5α, 10% FBS, penstrep), to achieve a single cell suspension. After cell count, cells were spun down for 5 minutes at 300 g. Next cell pellets were re-suspended to 25000 cells/80 μl assay medium (McCoy's 5a phenol red free, 2% charcoal stripped FBS, penstrep).
For compound screening, the cells were harvested (as described above). 80 μL of cell suspension (25,000 cells) was plated per well into a white, flat bottom, tissue culture treated, 96 well screening plates (Greiner). […]

Chain of full length ERRα (P11474 whole entry): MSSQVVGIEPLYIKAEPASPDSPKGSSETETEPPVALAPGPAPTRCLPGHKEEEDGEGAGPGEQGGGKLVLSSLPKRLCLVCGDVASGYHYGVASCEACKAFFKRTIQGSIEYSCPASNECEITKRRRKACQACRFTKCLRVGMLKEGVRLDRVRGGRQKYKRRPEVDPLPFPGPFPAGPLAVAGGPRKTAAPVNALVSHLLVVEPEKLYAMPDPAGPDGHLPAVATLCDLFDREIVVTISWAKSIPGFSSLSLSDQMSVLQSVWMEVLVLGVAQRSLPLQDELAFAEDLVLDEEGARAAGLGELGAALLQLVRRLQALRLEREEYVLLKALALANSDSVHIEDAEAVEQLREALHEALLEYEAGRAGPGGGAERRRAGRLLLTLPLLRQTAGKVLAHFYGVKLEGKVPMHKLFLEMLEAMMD
Chain of ERRα ligand binding domain (ERRα-LBD) (P11474 193-421): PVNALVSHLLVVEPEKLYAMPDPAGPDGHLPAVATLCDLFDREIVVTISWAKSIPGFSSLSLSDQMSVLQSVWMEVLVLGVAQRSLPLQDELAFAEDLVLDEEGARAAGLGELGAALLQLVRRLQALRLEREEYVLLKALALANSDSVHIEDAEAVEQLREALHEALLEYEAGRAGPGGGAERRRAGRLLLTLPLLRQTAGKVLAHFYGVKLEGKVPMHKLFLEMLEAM

COc1cc(-c2cc(=O)[nH]c3n[nH]cc23)ccc1OCc1cccc(OC)c1C(F)(F)F [Example 177, 4-(3-methoxy-4-{[3-methoxy-2-(trifluoromethyl)phenyl]methoxy}phenyl)-2H, 6H, 7H-pyrazolo[3,4-b]pyridin-6-one]
mean pIC50 [1]: ≥ 8
IC50 (full length ERRα): ≤ 0.316 µM

COc1cc(C2CC(=O)Nc3n[nH]cc32)ccc1OCc1ccc(C(F)(F)F)cc1C(F)(F)F (stereo not drawn) [Example 8, 4-(4-{[2,4-bis(trifluoromethyl)phenyl]methoxy}-3-methoxyphenyl)-2H,4H,5H,6H, 7H-pyrazolo[3,4-b]pyridin-6-one]
mean pIC50 [1]: ≥ 8
IC50 (full length ERRα): ≤ 0.316 µM

COc1cc(C2CC(=O)Nc3n[nH]cc32)ccc1OCc1ccc(CCN)cc1C(F)(F)F (stereo not drawn) [Example 150, 4-(4-{[4-(2-aminoethyl)-2-(trifluoromethyl)phenyl]methoxy}-3-methoxyphenyl)-2H,4H,5H,6H, 7H-pyrazolo[3,4-b]pyridin-6-one]
IC50 [1]: 0.1 to 1 µM
IC50 (full length ERRα): ≤ 0.316 µM

COc1cc(C2CC(=O)Nc3n[nH]cc32)ccc1OCc1ccc(F)cc1C(F)(F)F (stereo not drawn) [Example 9, 4-(4-{[4-fluoro-2-(trifluoromethyl)phenyl]methoxy}-3-methoxyphenyl)-2H,4H,5H,6H, 7H-pyrazolo[3,4-b]pyridin-6-one]
IC50 [1]: 0.01 to 0.1 µM
IC50 (full length ERRα): ≤ 0.316 µM

COc1cc(C2CC(=O)Nc3n[nH]cc32)ccc1OCc1ccc(CCO)cc1C(F)(F)F (single isomer, unassigned; (+)) [Example 211, (+)-4-(4-{[4-(2-hydroxyethyl)-2-(trifluoromethyl)phenyl]methoxy}-3-methoxyphenyl)-2H,4H,5H,6H,7H-pyrazolo[3,4-b]pyridin-6-one]
IC50 [1]: 0.01 to 0.1 µM
IC50 (full length ERRα): ≤ 0.316 µM

COc1cc(C2CC(=O)Nc3[nH]cnc32)ccc1OCc1ccccc1C(F)(F)F (stereo not drawn) [Example 89, 7-(3-methoxy-4-{[2-(trifluoromethyl)phenyl]methoxy}phenyl)-3H,4H,5H,6H, 7H-imidazo[4,5-b]pyridin-5-one]
mean pIC50 [1]: ≥ 8
IC50 (full length ERRα): ≤ 0.316 µM

CCc1ccc(COc2ccc(C3CC(=O)Nc4n[nH]cc43)cc2OC)c(C(F)(F)F)c1 (stereo not drawn) [Example 144, 4-(4-{[4-ethyl-2-(trifluoromethyl)phenyl]methoxy}-3-methoxyphenyl)-2H,4H,5H,6H, 7H-pyrazolo[3,4-b]pyridin-6-one]
mean pIC50 [1]: ≥ 8
IC50 (full length ERRα): ≤ 0.316 µM

COc1cc(C2CC(=O)Nc3n[nH]cc32)ccc1OCc1ccc(NC(=O)CN)cc1C(F)(F)F (stereo not drawn) [Example 140, 2-amino-N-{4-[(2-methoxy-4-{6-oxo-2H,4H,5H,6H, 7H-pyrazolo[3,4-b]pyridin-4-yl}phenoxy)methyl]-3-(trifluoromethyl)phenyl}acetamide]
IC50 [1]: 0.1 to 1 µM
IC50 (full length ERRα): ≤ 0.316 µM

COc1cc(C2CC(=S)Nc3n[nH]cc32)ccc1OCc1ccccc1C(F)(F)F (stereo not drawn) [Example 166, 4-(3-methoxy-4-{[2-(trifluoromethyl)phenyl]methoxy}phenyl)-2H,4H,5H,6H,7H-pyrazolo[3,4-b]pyridine-6-thione]
mean pIC50 [1]: ≥ 8
IC50 (full length ERRα): ≤ 0.316 µM

COc1ccc(COc2ccc(C3CC(=O)Nc4[nH]nnc43)cc2OC)c(C(F)(F)F)c1 (stereo not drawn) [Example 91, 7-(3-methoxy-4-{[4-methoxy-2-(trifluoromethyl)phenyl]methoxy}phenyl)-3H,4H,5H,6H,7H-[1,2,3]triazolo[4,5-b]pyridin-5-one]
mean pIC50 [1]: ≥ 8
IC50 (full length ERRα): ≤ 0.316 µM

COc1cc(C2CC(=O)Nc3n[nH]cc32)ccc1OCc1ccccc1C(F)(F)F (stereo not drawn) [Example 1, 4-(3-methoxy-4-{[2-(trifluoromethyl)phenyl]methoxy}phenyl)-2H,4H,5H,6H, 7H-pyrazolo[3,4-b]pyridin-6-one]
mean pIC50 [1]: ≥ 8
IC50 (full length ERRα): ≤ 0.316 µM

COc1ccc(COc2ccc(-c3cc(=O)[nH]c4n[nH]cc34)cc2OC)c(C(F)(F)F)c1 [Example 170, 4-(3-methoxy-4-{[4-methoxy-2-(trifluoromethyl)phenyl]methoxy}phenyl)-2H,6H, 7H-pyrazolo[3,4-b]pyridin-6-one]
mean pIC50 [1]: ≥ 8
IC50 (full length ERRα): ≤ 0.316 µM
